According to publication PMC9389255 (Heliyon, 2022):

What was measured:
[1] = tested on: α-Glucosidase from Saccharomyces cerevisiae; test: Inhibitory kinetic analysis; assay type: biochemical; settings: Lineweaver-Burk plots
[2] = Precipitation of DMSO-dissolved compounds upon mixing in phosphate buffer; assay type: physicochemical
[3] = tested on: α-Glucosidase from Saccharomyces cerevisiae; test: In vitro inhibition assay for α-glucosidase activity; assay type: biochemical
[4] = printed in the column IC50 against α-amylase
[5] = printed in the column IC50 against α-glucosidase

Structure (SMILES) | inhibition pattern against α-glucosidase [1] | Precipitated at (in vial) [2, 4] | Precipitated at (in vial) [2, 5] | other results
O=c1cc(-c2ccc(O)cc2)oc2cc(O)cc(O)c12 [Apigenin] | – | Precipitated at 1000 μM (in vial) | Precipitated at 1000 μM (in vial) | inhibitory activity on α-glucosidase ([3]; at ≤1000 μM): no inhibitory activity
O=c1cc(-c2ccccc2)oc2cc(O)cc(O)c12 [Chrysin] | – | Precipitated at 400 μM (in vial) | Precipitated at 400 μM (in vial) | inhibitory activity on α-glucosidase ([3]; at ≤400 μM): no inhibitory activity
O=c1c(O)c(-c2ccc(O)cc2)oc2cc(O)cc(O)c12 [Kaempferol] | – | Precipitated at 80 μM (in vial) | Precipitated at 80 μM (in vial) | inhibitory activity on α-glucosidase ([3]; at ≤80 μM): no inhibitory activity
O=c1cc(-c2ccc(O)c(O)c2)oc2cc(O)cc(O)c12 [Luteolin] | mixed inhibition patterns | – | – | –

More lines, main results first:

inhibition pattern against α-glucosidase [1] | Precipitated at (in vial) [2, 4] | Precipitated at (in vial) [2, 5] | Structure (SMILES) | other results
competitive inhibition pattern | – | – | C[C@H]1O[C@H](O[C@H]2[C@H](O)[C@@H](O)[C@@H](O[C@H]3[C@H](O)[C@@H](O)C(O)O[C@@H]3CO)O[C@@H]2CO)[C@H](O)[C@@H](O)[C@@H]1N[C@H]1C=C(CO)[C@@H](O)[C@H](O)[C@H]1O (stereo partly shown) [Acarbose, reference compound] | –
mixed inhibition patterns | – | – | O=c1c(O)c(-c2cc(O)c(O)c(O)c2)oc2cc(O)cc(O)c12 [Myricetin] | –
mixed inhibition patterns | – | – | O=c1c(O)c(-c2ccc(O)c(O)c2)oc2cc(O)cc(O)c12 [Quercetin] | –
